This is an account of results in ChEMBL document CHEMBL1150263, “Combining docking, molecular dynamics and the linear interaction energy method to predict binding modes and affinities for non-nucleoside inhibitors to HIV-1 reverse transcriptase” (J Med Chem, 2008).

The target in this experiment is Human immunodeficiency virus type 1 reverse transcriptase (Human immunodeficiency virus 1, UniProt Q72547). In words: Inhibition of HIV1 reverse transcriptase.
In general, IC50 refers to the point on the concentration scale where inhibition reaches its midpoint. A lower IC50 goes with inhibition by little substance. Consider `CCCc1c(C)[nH]c(=O)c(N(C)C)c1Cc1cc(C)cc(C)c1`, for which the midpoint of inhibition, the IC50, lay at 50 nM.

For the compound `CCc1[nH]c(=O)c(N(C)C)c(Cc2cc(C)cc(C)c2)c1C`, inhibition was half-maximal at 10 nM (IC50).

As to `Cc1cc(C)cc(Cc2cc(C)[nH]c(=O)c2N(C)C)c1`, the IC50 was 398 nM.

Regarding `Cc1cc(C)cc(Cc2c(CC(C)C)c(C)[nH]c(=O)c2N(C)C)c1`, the IC50 stood at 50 nM.

`CCc1c(C)[nH]c(=O)c(N(C)C)c1Cc1cc(C)cc(C)c1` had an IC50 of 8 nM.

On to `Cc1cc(C)cc(Cc2c(C)c(C)[nH]c(=O)c2N(C)C)c1`, for which the midpoint of inhibition, the IC50, lay at 5 nM.

The compound `Cc1cc(C)cc(Cc2c(C)c(C(C)C)[nH]c(=O)c2N(C)C)c1` had an IC50 of 794 nM.

The compound `Cc1cc(C)cc(Cc2cc[nH]c(=O)c2N(C)C)c1` displayed an IC50 of 7940 nM.

Regarding `CCc1c(C)[nH]c(=O)c(NNC(=S)Nc2ccccc2)c1Cc1cccc(C)c1`, half-maximal inhibition (IC50) was put at 3160 nM.

`CCc1c(C)[nH]c(=O)c(NNC(N)=S)c1Cc1cccc(C)c1` came in with an IC50 of 316 nM.

As to `CCC1C(Cc2cccc(C)c2)=C(N(C)CCO)C(=O)NC1C` (stereo not drawn), the IC50 is 5 nM.

As to `Cc1cc(C)cc(Cc2c3c([nH]c(=O)c2N(C)C)CCCC3)c1`, the IC50 turned out to be 10 nM.

In the case of `CCNC(=S)NNc1c(Cc2cccc(C)c2)c(CC)c(C)[nH]c1=O`, the IC50 was found to be 25100 nM.
